Data from the NIST ThermoML archive (doi:10.1016/j.jct.2004.11.016).
± gives the expanded uncertainty stated by the source.

What was measured:
[1] = Liquid; for mass density: 101.3 kPa; for viscosity: 101 kPa
[2] = xn = mol fraction of the nth substance listed; details: Liquid, x2 = 0; for viscosity: 101 kPa; for mass density: 101.3 kPa

Compound: CN(C)CCO [2-(N,N-dimethylamino)ethanol]
- mass density ([1]; 293.15 K): 887.816 ± 1.2 kg/m3
- mass density ([1]; 298.15 K): 883.578 ± 1.2 kg/m3
- mass density ([1]; 303.15 K): 879.315 ± 1.3 kg/m3
- mass density ([1]; 308.15 K): 875.017 ± 1.3 kg/m3
- viscosity ([1]; 313.15 K): 2.238 ± 0.033 mPa·s
- mass density ([1]; 313.15 K): 870.686 ± 1.3 kg/m3
- mass density ([1]; 318.15 K): 866.316 ± 1.3 kg/m3
- viscosity ([1]; 323.15 K): 1.756 ± 0.026 mPa·s
- mass density ([1]; 323.15 K): 861.902 ± 1.4 kg/m3
- mass density ([1]; 328.15 K): 857.46 ± 1.4 kg/m3
- viscosity ([1]; 333.15 K): 1.413 ± 0.021 mPa·s
- mass density ([1]; 333.15 K): 852.965 ± 1.4 kg/m3
- mass density ([1]; 338.15 K): 848.423 ± 1.5 kg/m3
- viscosity ([1]; 343.15 K): 1.156 ± 0.017 mPa·s
- mass density ([1]; 343.15 K): 843.844 ± 1.5 kg/m3
- mass density ([1]; 348.15 K): 839.205 ± 1.5 kg/m3
- viscosity ([1]; 353.15 K): 0.963 ± 0.015 mPa·s
- mass density ([1]; 353.15 K): 834.521 ± 1.5 kg/m3
- mass density ([1]; 358.15 K): 829.779 ± 1.6 kg/m3
- mass density ([1]; 363.15 K): 824.969 ± 1.6 kg/m3

Compound: O [water]
- viscosity ([1]; 313.15 K): 0.651 ± 0.01 mPa·s
- viscosity ([1]; 323.15 K): 0.544 ± 0.009 mPa·s
- mass density ([1]; 323.15 K): 988.03 ± 0.57 kg/m3
- mass density ([1]; 328.15 K): 985.688 ± 0.59 kg/m3
- viscosity ([1]; 333.15 K): 0.463 ± 0.008 mPa·s
- mass density ([1]; 333.15 K): 983.191 ± 0.6 kg/m3
- mass density ([1]; 338.15 K): 980.546 ± 0.62 kg/m3
- viscosity ([1]; 343.15 K): 0.396 ± 0.007 mPa·s
- mass density ([1]; 343.15 K): 977.759 ± 0.64 kg/m3
- mass density ([1]; 348.15 K): 974.838 ± 0.66 kg/m3
- viscosity ([1]; 353.15 K): 0.348 ± 0.006 mPa·s
- mass density ([1]; 353.15 K): 971.785 ± 0.68 kg/m3
- mass density ([1]; 358.15 K): 968.606 ± 0.7 kg/m3
- mass density ([1]; 363.15 K): 965.305 ± 0.72 kg/m3

Compound: O [water] + CN(C)CCO
- viscosity ([2]; 313.15 K): 0.651 ± 0.01 mPa·s
- viscosity ([2]; 323.15 K): 0.544 ± 0.009 mPa·s
- mass density ([2]; 323.15 K): 988.03 ± 0.57 kg/m3
- mass density ([2]; 328.15 K): 985.688 ± 0.59 kg/m3
- viscosity ([2]; 333.15 K): 0.463 ± 0.008 mPa·s
- mass density ([2]; 333.15 K): 983.191 ± 0.6 kg/m3
- mass density ([2]; 338.15 K): 980.546 ± 0.62 kg/m3
- viscosity ([2]; 343.15 K): 0.396 ± 0.007 mPa·s
- mass density ([2]; 343.15 K): 977.759 ± 0.64 kg/m3
- mass density ([2]; 348.15 K): 974.838 ± 0.66 kg/m3
- viscosity ([2]; 353.15 K): 0.348 ± 0.006 mPa·s
- mass density ([2]; 353.15 K): 971.785 ± 0.68 kg/m3
- mass density ([2]; 358.15 K): 968.606 ± 0.7 kg/m3
- mass density ([2]; 363.15 K): 965.305 ± 0.72 kg/m3
